Source: patent US10206937B2, “Boronic acid derivatives and therapeutic uses thereof” (Qpex Biopharma, Inc., priority 2014, dated 2019)

Test system: strains of Enterobacteriaceae producing various carbapenemases (class A, D and B; 104 strains)
Assay: Antibiotics potentiation by Compound 27 (MIC; meropenem, doripenem, ertapenem, cefepime)
Type: cell-based
Settings: + 27 = with Compound 27 at fixed 4 μg/ml

COc1ccc2c(c1C(=O)O)OB(O)C(Sc1nnc(N)s1)C2 (centres unmarked) [E + 27]
MIC (strain CF1012 Citrobacter freundii (KPC-2)): X (MIC of less than 1 μg/mL)
MIC (strain CF1021 Citrobacter freundii (CMY-type; VIM-1)): X (MIC of less than 1 μg/mL)
MIC (strain CF1022 Citrobacter freundii (SHV-12(2be), TEM-OSBL(2b); IMP-8)): X (MIC of less than 1 μg/mL)
MIC (strain CF1023 Citrobacter freundii (SHV-12(2be), TEM-OSBL(2b); CTX-M-3; CMY-34; NDM-1)): X (MIC of less than 1 μg/mL)
MIC (strain CL1080 Enterobacter cloacae (IMP-1)): Y (MIC of 1 μg/mL to 10 μg/mL)
MIC (strain EA1019 Enterobacter aerogenes (SHV-5, VIM-1)): X (MIC of less than 1 μg/mL)
MIC (strain EC1007 Escherichia coli (KPC-3)): X (MIC of less than 1 μg/mL)
MIC (strain EC1061 Escherichia coli (NDM-1, CMY-6)): X (MIC of less than 1 μg/mL)
MIC (strain EC1062 Escherichia coli (OXA-48, CTX-M-15)): X (MIC of less than 1 μg/mL)
MIC (strain EC1064 Escherichia coli (NDM-1, CMY-6, CTX-M-15)): Z (MIC of greater than 10 μg/mL)
MIC (strain EC1065 Escherichia coli (IMP-1)): X (MIC of less than 1 μg/mL)
MIC (strain EC1068 Escherichia coli (VIM-1)): X (MIC of less than 1 μg/mL)
MIC (strain EC1069 Escherichia coli (CTX-M-27; NDM-1)): X (MIC of less than 1 μg/mL)
MIC (strain EC1070 Escherichia coli (TEM-OSBL(2b); CMY-42; NDM-5)): X (MIC of less than 1 μg/mL)
MIC (strain EC1072 Escherichia coli (CTX-M-3; NDM-1)): X (MIC of less than 1 μg/mL)
MIC (strain ECL1004 Enterobacter cloacae (NMC-A)): X (MIC of less than 1 μg/mL)
MIC (strain ECL1026 Enterobacter cloacae (KPC-2, TEM-1)): X (MIC of less than 1 μg/mL)
MIC (strain ECL1036 Enterobacter cloacae (KPC-3, TEM-1)): X (MIC of less than 1 μg/mL)
MIC (strain ECL1045 Enterobacter cloacae (VIM-1)): Y (MIC of 1 μg/mL to 10 μg/mL)
MIC (strain ECL1055 Enterobacter cloacae (KPC-3, TEM)): X (MIC of less than 1 μg/mL)
MIC (strain ECL1057 Enterobacter cloacae (NDM-1, TEM-1, CTX-M-15)): Z (MIC of greater than 10 μg/mL)
MIC (strain ECL1058 Enterobacter cloacae (KPC-3, SHV-11, TEM-1)): Y (MIC of 1 μg/mL to 10 μg/mL)
MIC (strain ECL1059 Enterobacter cloacae (KPC-3, SHV-12, TEM-1)): X (MIC of less than 1 μg/mL)
MIC (strain ECL1061 Enterobacter cloacae (KPC-3, Hyper AmpC expression)): Y (MIC of 1 μg/mL to 10 μg/mL)
MIC (strain ECL1082 Enterobacter cloacae (VIM-1)): X (MIC of less than 1 μg/mL)
MIC (strain ECL1084 Enterobacter cloacae (CTX-M-15; ACT-16; NDM-1)): X (MIC of less than 1 μg/mL)
MIC (strain ECL1085 Enterobacter cloacae (SHV-31(2be), TEM-1(2b); CTX-M-15; NDM-1)): X (MIC of less than 1 μg/mL)
MIC (strain ECL1086 Enterobacter cloacae (VIM-31, OXA-48(c))): Y (MIC of 1 μg/mL to 10 μg/mL)
MIC (strain ECL1087 Enterobacter cloacae (VIM-1)): X (MIC of less than 1 μg/mL)
MIC (strain ECL1088 Enterobacter cloacae (TEM-1(2b); CTX-M-14; ACT-type; VIM-1)): X (MIC of less than 1 μg/mL)
MIC (strain ECL1089 Enterobacter cloacae (ACT-type; IMP-1)): Z (MIC of greater than 10 μg/mL)
MIC (strain ECL1090 Enterobacter cloacae (TEM-1(2b); CTX-M-22; ACT-type; IMP-8)): X (MIC of less than 1 μg/mL)
MIC (strain ECL1091 Enterobacter cloacae (VIM-1)): X (MIC of less than 1 μg/mL)
MIC (strain ECL1092 Enterobacter cloacae (TEM-OSBL(2b); ACT-32; VIM-1)): X (MIC of less than 1 μg/mL)
MIC (strain ECL1093 Enterobacter cloacae (TEM-OSBL(2b); ACT-32; VIM-1)): X (MIC of less than 1 μg/mL)
MIC (strain ECL1094 Enterobacter cloacae (VIM-1)): Y (MIC of 1 μg/mL to 10 μg/mL)
MIC (strain ECL1096 Enterobacter cloacae (CMY-4, VIM-4, OXA-48(c))): X (MIC of less than 1 μg/mL)
MIC (strain ECL1097 Enterobacter cloacae (SHV-31(2be), TEM-OSBL(2b); CTX-M-15; ACT-31; NDM-1)): X (MIC of less than 1 μg/mL)
MIC (strain ECL1098 Enterobacter cloacae (TEM-OSBL(2b); DHA-1; ACT-16; NDM-1)): X (MIC of less than 1 μg/mL)
MIC (strain KP1001 Klebsiella pneumoniae (KPC TEM SHV)): Z (MIC of greater than 10 μg/mL)
MIC (strain KP1002 Klebsiella pneumoniae (KPC TEM SHV)): X (MIC of less than 1 μg/mL)
MIC (strain KP1003 Klebsiella pneumoniae (KPC TEM SHV)): X (MIC of less than 1 μg/mL)
MIC (strain KP1004 Klebsiella pneumoniae (KPC-2, TEM-1, SHV-11)): X (MIC of less than 1 μg/mL)
MIC (strain KP1008 Klebsiella pneumoniae (KPC-2)): X (MIC of less than 1 μg/mL)
MIC (strain KP1014 Klebsiella pneumoniae (VIM-1, TEM, SHV)): X (MIC of less than 1 μg/mL)
MIC (strain KP1054 Klebsiella pneumoniae (VIM-1, SHV-11)): X (MIC of less than 1 μg/mL)
MIC (strain KP1059 Klebsiella pneumoniae (VIM-1, SHV-11)): Y (MIC of 1 μg/mL to 10 μg/mL)
MIC (strain KP1061 Klebsiella pneumoniae (KPC-3, SHV-11, TEM-1)): X (MIC of less than 1 μg/mL)
MIC (strain KP1064 Klebsiella pneumoniae (KPC-2, SHV-11, TEM-1)): Z (MIC of greater than 10 μg/mL)
MIC (strain KP1065 Klebsiella pneumoniae (VIM-1, SHV-11)): X (MIC of less than 1 μg/mL)
MIC (strain KP1070 Klebsiella pneumoniae (KPC-2, SHV-11, TEM-1)): X (MIC of less than 1 μg/mL)
MIC (strain KP1074 Klebsiella pneumoniae (KPC-3, SHV-11, TEM)): Z (MIC of greater than 10 μg/mL)
MIC (strain KP1081 Klebsiella pneumoniae (NDM-1, TEM-1, SHV-11, CMY-6, CTX-M-15)): Y (MIC of 1 μg/mL to 10 μg/mL)
MIC (strain KP1082 Klebsiella pneumoniae (KPC-2, SHV-1)): X (MIC of less than 1 μg/mL)
MIC (strain KP1083 Klebsiella pneumoniae (KPC-3, SHV-1, TEM-1)): X (MIC of less than 1 μg/mL)
MIC (strain KP1084 Klebsiella pneumoniae (KPC-3, SHV-11, TEM-1)): Z (MIC of greater than 10 μg/mL)
MIC (strain KP1086 Klebsiella pneumoniae (OXA-48, CTX-M-15, TEM, SHV)): Z (MIC of greater than 10 μg/mL)
MIC (strain KP1087 Klebsiella pneumoniae (KPC-2, CTX-M-15, SHV-11, TEM-1)): Y (MIC of 1 μg/mL to 10 μg/mL)
MIC (strain KP1088 Klebsiella pneumoniae (KPC-3, SHV-11, TEM-1)): X (MIC of less than 1 μg/mL)
MIC (strain KP1089 Klebsiella pneumonias (OXA-181, CTX-M-15, TEM, SHV)): X (MIC of less than 1 μg/mL)
MIC (strain KP1095 Klebsiella pneumoniae (KPC-2 TEM-1 SHV-1)): X (MIC of less than 1 μg/mL)
MIC (strain KP1096 Klebsiella pneumoniae (KPC-2 TEM-181 SHV-11)): X (MIC of less than 1 μg/mL)
MIC (strain KP1097 Klebsiella pneumonias (IMP-1)): X (MIC of less than 1 μg/mL)
MIC (strain KP1098 Klebsiella pneumoniae (IMP-26)): Y (MIC of 1 μg/mL to 10 μg/mL)
MIC (strain KP1104 Klebsiella pneumoniae (KPC TEM)): X (MIC of less than 1 μg/mL)
MIC (strain KP1105 Klebsiella pneumoniae (KPC TEM SHV)): X (MIC of less than 1 μg/mL)
MIC (strain KP1159 Klebsiella pneumoniae (SHV-1(2b); CTX-M-15; IMP-4)): Y (MIC of 1 μg/mL to 10 μg/mL)
MIC (strain KP1160 Klebsiella pneumoniae (SHV-28(2be); CTX-M-15; IMP-26)): Y (MIC of 1 μg/mL to 10 μg/mL)
MIC (strain KP1161 Klebsiella pneumoniae (NDM-1)): X (MIC of less than 1 μg/mL)
MIC (strain KP1164 Klebsiella pneumoniae (SHV-12(2be); VIM-1)): X (MIC of less than 1 μg/mL)
MIC (strain KP1165 Klebsiella pneumoniae (SHV-11(2b); CTX-M-15; VIM-27)): Z (MIC of greater than 10 μg/mL)
MIC (strain KP1166 Klebsiella pneumoniae (SHV-5(2be); VIM-26)): Y (MIC of 1 μg/mL to 10 μg/mL)
MIC (strain KP1167 Klebsiella pneumoniae (SHV-12(2be); VIM-1)): X (MIC of less than 1 μg/mL)
MIC (strain KP1169 Klebsiella pneumoniae (SHV-11(2b); VIM-1)): X (MIC of less than 1 μg/mL)
MIC (strain KP1170 Klebsiella pneumoniae (SHV-11(2b); CTX-M-15; NDM-1)): X (MIC of less than 1 μg/mL)
MIC (strain KP1172 Klebsiella pneumoniae (SHV-31(2be); DHA-1; VIM-1)): X (MIC of less than 1 μg/mL)
MIC (strain KP1173 Klebsiella pneumoniae (TEM-33(2br); CTX-M-15; IMP-1)): X (MIC of less than 1 μg/mL)
MIC (strain KP1174 Klebsiella pneumoniae (CTX-M-14; IMP-1)): X (MIC of less than 1 μg/mL)
MIC (strain KP1175 Klebsiella pneumoniae (SHV-OSBL(2b); VIM-1)): X (MIC of less than 1 μg/mL)
MIC (strain KP1177 Klebsiella pneumoniae (SHV-OSBL(2b), TEM-OSBL(2b); CTX-M-15; NDM-1)): X (MIC of less than 1 μg/mL)
MIC (strain KP1178 Klebsiella pneumoniae (SHV-OSBL(2b;) TEM-OSBL(2b); CTX-M-15; NDM-1)): X (MIC of less than 1 μg/mL)
MIC (strain KP1179 Klebsiella pneumoniae (SHV-12(2be), TEM-OSBL(2b); CTX-M-15; NDM-7)): X (MIC of less than 1 μg/mL)
MIC (strain KP1180 Klebsiella pneumoniae (SHV-OSBL(2b), TEM-OSBL(2b); CTX-M-15; DHA-1; IMP-26)): X (MIC of less than 1 μg/mL)
MIC (strain KP1181 Klebsiella pneumoniae (SHV-OSBL(2b); CTX-M-15; IMP-26)): X (MIC of less than 1 μg/mL)
MIC (strain KP1183 Klebsiella pneumoniae (SHV-OSBL(2b), TEM-OSBL(2b); CTX-M-15; NDM-1)): X (MIC of less than 1 μg/mL)
MIC (strain KP1184 Klebsiella pneumoniae (SHV-OSBL(2b); IMP-1)): X (MIC of less than 1 μg/mL)
MIC (strain KP1185 Klebsiella pneumoniae (SHV-OSBL(2b), TEM-OSBL(2b); IMP-4)): Y (MIC of 1 μg/mL to 10 μg/mL)
MIC (strain KP1186 Klebsiella pneumoniae (CTX-M-15; NDM-1)): X (MIC of less than 1 μg/mL)
MIC (strain KP1187 Klebsiella pneumoniae (SHV-55(2be), TEM-OSBL(2b); CTX-M-15; NDM-1)): X (MIC of less than 1 μg/mL)
MIC (strain KP1188 Klebsiella pneumoniae (SHV-OSBL(2b); CTX-M-15; NDM-1)): Y (MIC of 1 μg/mL to 10 μg/mL)
MIC (strain KP1189 Klebsiella pneumoniae (TEM-OSBL(2b); CTX-M-15; CTX-M-27; NDM-1)): X (MIC of less than 1 μg/mL)
MIC (strain KPM1123 Klebsiella pneumoniae (KPC-2 TEM SHV)): X (MIC of less than 1 μg/mL)
MIC (strain KPM1202 Klebsiella pneumoniae (KPC SHV TEM)): X (MIC of less than 1 μg/mL)
MIC (strain KPM1203 Klebsiella pneumoniae (KPC SHV TEM)): X (MIC of less than 1 μg/mL)
MIC (strain KPM1344 Klebsiella pneumoniae (VIM-1)): X (MIC of less than 1 μg/mL)
MIC (strain KPM1345 Klebsiella pneumoniae (VIM-1 SHV)): X (MIC of less than 1 μg/mL)
MIC (strain KPM1347 Klebsiella pneumoniae (NDM-1 SHV CTX-M-15)): X (MIC of less than 1 μg/mL)
MIC (strain KX1017 Klebsiella oxytoca (KPC-2, OXA-2, SHV-30)): X (MIC of less than 1 μg/mL)
MIC (strain KX1018 Klebsiella oxytoca (KPC-2, SHV-40, OXY-1)): X (MIC of less than 1 μg/mL)
MIC (strain KX1019 Klebsiella oxytoca (KPC-2, OXA-2)): X (MIC of less than 1 μg/mL)
MIC (strain PM1024 Proteus mirabilis (TEM-1(2b); CMY-16; VIM-1)): X (MIC of less than 1 μg/mL)
MIC (strain PM1026 Proteus mirabilis (DHA-1; IMP-26)): X (MIC of less than 1 μg/mL)
MIC (strain PM1027 Proteus mirabilis (VIM-5)): X (MIC of less than 1 μg/mL)
MIC (strain SM1023 Serratia marcescens (VIM-4)): Y (MIC of 1 μg/mL to 10 μg/mL)
